The text below walks through data of paper PMC6271975, “Structure-Activity Relationship Study of Sesquiterpene Lactones and Their Semi-Synthetic Amino Derivatives as Potential Antitrypanosomal Products” (Molecules, 2014).

In assay [1] the test system is T. b. rhodesiense STIB 900 bloodstream forms. More on the design: method as in PMID 22331812, PMID 24080104, PMID 21624443, PMID 22396915. Conditions: cited from earlier work; for SI (Selectivity Index): IC50 against L6 cells divided by IC50 against STIB 900 strain, previously reported compounds; for IC50: previously reported compounds included for comparison, compound 9 tested once, read-out: T. brucei STIB 900 IC50.

In assay [2] the test system is rat skeletal myoblasts (L6-cells). Details: method as in PMID 22331812, PMID 24080104, PMID 21624443, PMID 22396915. Conditions: cytotoxicity; previously reported compounds included for comparison; cited from earlier work.
The test system is the same in assay [3]. Put plainly: cells. In kind it is cell-based. Conditions: read-out: L6 cells IC50. The procedure:
The cytotoxicity assay was performed with rat skeletal myoblasts (L6-cells) seeded in 100 μL RPMI 1640 in 96-well micro titre plates, using the Alamar Blue assay described above. After 24 h the medium was removed and replaced by 100 μL of fresh RPMI 1640 with serial threefold drug dilution. Podophyllotoxin (purity > 95%, Sigma-Aldrich) was used as a reference drug. After 70 h of incubation under a humidified 5% CO2 atmosphere, 10 μL of the Alamar blue marker (see above) was added to all wells. The plates were incubated for an additional 2 h. A Spectramax Gemini XS micro plate fluorescence reader (Molecular Devices) was used to read the plates using an excitation wavelength of 536 nm and an emission wavelength of 588 nm. The IC50s were calculated from the sigmoidal growth inhibition curves using Softmax Pro software (Molecular Devices).

The subject of assay [4] is T. b. rhodesiense STIB 900 bloodstream forms. Put plainly: In vitro antitrypanosomal Alamar Blue assay. In kind it is cell-based, Trypanosoma brucei rhodesiense. Conditions: for SI (Selectivity Index): IC50 against L6 cells divided by IC50 against STIB 900 strain; for IC50: read-out: T. brucei STIB 900 IC50. The protocol:
Evaluation of in vitro antiprotozoal activity against T. b. rhodesiense was done using the Alamar Blue assay to determine IC50s as previously described. Serial threefold dilution were prepared in 96-well micro titre plates, and 4000 T. b. rhodesiense STIB 900 bloodstream forms in 50 μL were added to each well except for the negative controls. Melarsoprol (Arsobal®, purity > 95%, Sanofi-Aventis, Meyrin, Switzerland) was used as reference drugs. […] The IC50 values were calculated from the sigmoidal growth inhibition curves using Softmax Pro software (Molecular Devices).
A general note: Alamar Blue is a resazurin reagent that responds to reducing activity.

[5] abbreviates: Rattus norvegicus, L6, 70 h, cytotoxicity, 70 h incubation, average of three independent assays.
Setting [6] is: Trypanosoma brucei, 70 h, 70 h incubation, average of three independent assays.
[7] abbreviates: 70 h incubation, average of three independent assays.
Where [8] appears, read: Rattus norvegicus, L6, cytotoxicity, 70 h incubation, average of three independent assays.
[9] abbreviates: Trypanosoma brucei, 70 h incubation, average of three independent assays.

Read-outs that look alike come from different tables or passages of the source.

Broadly, the IC50 is the midpoint of a concentration-inhibition curve.

In the case of `C=C(CO)C(=O)O[C@H]1C/C(C)=C\CC/C(CO)=C\[C@H]2OC(=O)C(=C)[C@H]12` [Compound 2, Onopordopicrin], the “SI (Selectivity Index)” value in assay [1] is listed as 8.2. The values for the IC50 in assay [1] and in assay [2] were 0.4 ± 0.01 µM and 3.1 ± 1.1 µM, respectively.
Regarding `C=C1C(=O)O[C@@H]2/C=C(\CO)CC/C=C(\C)C[C@H](OC(=O)C(=C)[C@H](O)CO)[C@@H]12` [Compound 3, Cnicin], the values for the IC50 in assay [3] (setting [5]) and in assay [4] (setting [6]) were 4.2 ± 0.9 µM and 0.4 ± 0.1 µM, respectively. Besides, in assay [4], the “SI (Selectivity Index)” value was 10.
The matching figures for `C=C[C@@]12COC(=O)C(=C)[C@@H]1[C@H]1OC(=O)C(=C)[C@@H]1[C@@H](OC(=O)C(=C)CO)C2` [Compound 4, Vernodalin]: 0.6 ± 0.02 µM, 0.2 ± 0.01 µM and 3.
On to `C=C1CC[C@H]2C(=C)CC[C@H]3C(=C)C(=O)O[C@@H]3[C@@H]12` [Compound 6, dehydrocostuslactone], for which, in assay [1], the “SI (Selectivity Index)” value is 1.9 and the IC50 is 4.4 ± 1.2 µM. In assay [2], the IC50 is 8.3 ± 1.9 µM.
Turning to `C=C1C(=O)O[C@@H]2/C=C(\C)CC/C=C(\C)CC[C@@H]12` [Compound 7, costunolide], in assay [1], the “SI (Selectivity Index)” value was 5.9 and the IC50 is 1.3 ± 0.4 µM. For the same compound, the IC50 in assay [2] was 7.7 ± 1.3 µM.
With `C=C1C(=O)O[C@H]2[C@H]1CC/C(C)=C/CC[C@@]1(C)O[C@@H]21` [Compound 8, parthenolide], in assay [1], the “SI (Selectivity Index)” value is 6.5 and the IC50 was 0.8 ± 0.5 µM. Moreover, the IC50 in assay [2] is 5.2 ± 0.9 µM.
Turning to `C=C1C(=O)OC2C1CCC(=C)C1CC(OC(C)=O)C(=C)C12` (stereo not drawn) [Compound 9, Zaluzanin D], in assay [1], the “SI (Selectivity Index)” value is 1.4 and the IC50 was 10.8 µM. Besides, the IC50 in assay [2] was 15.6 µM.
Regarding `C=C1C(=O)OC2C3=C(C)C(=O)CC3C(C)(OC(C)=O)CCC12` (stereo not drawn) [Compound 10], the IC50 was 4.3 ± 0.5 µM in assay [3] (setting [5]), 0.6 ± 0.2 µM in assay [4] (setting [7]) and 0.7 µM in assay [4] (setting [6]). Also, the “SI (Selectivity Index)” value in assay [4] was 7.6.
In the case of `C=C1C(=O)O[C@@H]2[C@H]1CC[C@H](C)[C@]1(CCC(=O)O1)[C@@]2(C)O` [Compound 11, Psilostachyin A], the IC50 in assay [3] (setting [5]) was 6.9 ± 1.8 µM; in assay [4] (setting [6]), 5.8 ± 0.7 µM. For the same compound, the “SI (Selectivity Index)” value in assay [4] was determined as 1.2.
Turning to `C=C1C(=O)O[C@@H]2/C=C(\C)CC/C=C(\C)C[C@@H](OC(=O)/C(=C/CO)CO)[C@@H]12` [Compound 13, Eupatoriopicrin], in assay [1], the “SI (Selectivity Index)” value is 1.3 and the IC50 is 1.2 ± 0.2 µM. The IC50 in assay [2] is 1.6 ± 0.1 µM.
As to `C=C1C(=O)O[C@@H]2/C=C(/C)[C@@H](O)C/C=C(\C)C[C@H](OC(=O)/C(C)=C\C)[C@@H]12` [Compound 14, Nobilin], the IC50 in assay [3] (Rattus norvegicus, L6, 70 h) came to 10.5 ± 0.1 µM.
As to `CC1=C2C3OC(=O)C(C)C3CCC(C)(O)C2CC1O` (stereo not drawn) [Compound 15, 3-Hydroxyisophotosantonin], the IC50 in assay [3] (setting [5]) was 353 ± 4 µM; in assay [4] (setting [6]), 54.7 ± 8 µM. For the same compound, the “SI (Selectivity Index)” value in assay [4] is on record as 6.4.
With `CC(=O)OC1(C)CCC2C(C)C(=O)OC2C2=C(C)C(=O)CC21` (stereo not drawn) [Compound 16], the IC50 was more than 292 µM in assay [3] (setting [5]), 45.7 ± 5 µM in assay [4] (setting [7]) and 46 µM in assay [4] (setting [6]). In addition, the “SI (Selectivity Index)” value in assay [4] is more than 6.4.
Consider `CC1=C2[C@H]3OC(=O)[C@@H](C)[C@@H]3CC[C@@]2(C)C=CC1=O` [Compound 17, Santonin], for which the IC50 is more than 366 µM in assay [3] (setting [8]) and 41.5 ± 0.8 µM in assay [4] (setting [9]). Moreover, the “SI (Selectivity Index)” value in assay [4] is given as more than 8.8.
The corresponding values for `CC1C(=O)OC2C1CCC1(C)C=CC(=O)C(C)C21` (stereo not drawn) [Compound 18] are 34 ± 1.5 µM, 12.9 ± 2.4 µM and 2.6.
Regarding `C=C1CC(O)C2C(CN(C)C)C(=O)OC2C2C(=C)C(O)CC12` (stereo not drawn) [Compound 20, Deacylcynaropicrin dimethylamine adduct], the IC50 in assay [3] (setting [5]) is 8.6 ± 1.3 µM; in assay [4] (setting [6]), 3.6 ± 1 µM. In assay [4], the “SI (Selectivity Index)” value is listed as 2.5.
The corresponding values for `CCN(CC)CC1C(=O)OC2C3=C(C)C(=O)CC3C(C)(O)CCC12` (stereo not drawn) [Compound 21, Deacylated diethylamine adduct] are 9.4 ± 2.2 µM, 4.2 ± 0.8 µM and 2.2.
The matching figures for `CC(=O)OC1(C)CCC2C(CN3CCOCC3)C(=O)OC2C2=C(C)C(=O)CC21` (stereo not drawn) [Compound 22, Morpholine adduct]: 7.4 ± 0.8 µM, 0.7 ± 0.1 µM and 10.3.
As for `CC1C(=O)CCC2(C)CCC3C(CN4CCOCC4)C(=O)OC3C12` (stereo not drawn) [Compound 23, Morpholine adduct], the values for the IC50 in assay [3] (setting [5]) and in assay [4] (setting [6]) were 65.6 ± 9.7 µM and 11.8 ± 2.7 µM, respectively. Moreover, the “SI (Selectivity Index)” value in assay [4] turned out to be 5.6.
The corresponding values for `CC1C(=O)C=CC2(C)CCC3C(CN4CCOCC4)C(=O)OC3C12` (stereo not drawn) [Compound 24, Morpholine adduct] are 31.3 ± 1.4 µM, 2.4 ± 0.7 µM and 13.3.
The corresponding values for `CC12CCC3C(CN4CCOCC4)C(=O)OC3C13C=CC(=O)C23C` (stereo not drawn) [Compound 25, Morpholine adduct] are 9.9 ± 1.6 µM, 2.6 ± 0.5 µM and 3.8.
With `CC1C(=O)C=CC2(C)CCC3C(CNCCc4ccc(O)cc4)C(=O)OC3C12` (stereo not drawn) [Compound 26, Tyramine adduct], the IC50 in assay [3] (setting [5]) is more than 236 µM; in assay [4] (setting [6]), 6.7 ± 1.3 µM. Moreover, the “SI (Selectivity Index)” value in assay [4] was more than 35.0.
`CC1C(=O)CCC2(C)CCC3C(CNCCc4ccc(O)cc4)C(=O)OC3C12` (stereo not drawn) [Compound 27, Tyramine adduct]: the IC50 in assay [3] (setting [5]) stood at 45.6 ± 3.2 µM; in assay [4] (setting [6]) it was 13 ± 1.4 µM. Also, the “SI (Selectivity Index)” value in assay [4] was found to be 4.
The corresponding values for `CC1=C2C3OC(=O)C(CNCCc4ccc(O)cc4)C3CCC2(C)C=CC1=O` (stereo not drawn) [Compound 28, Tyramine adduct] are 87.9 ± 2.2 µM, 13.4 ± 1.1 µM and 6.5.
The corresponding values for `CC(=O)OC1(C)CCC2C(CNCCc3ccc(O)cc3)C(=O)OC2C2=C(C)C(=O)CC21` (stereo not drawn) [Compound 29, Tyramine adduct] are 22.1 ± 4 µM, 6.6 ± 0.7 µM and 3.3.
On to `CC12CCC3C(CNCCc4ccc(O)cc4)C(=O)OC3C13C=CC(=O)C23C` (stereo not drawn) [Compound 30, Tyramine adduct], for which the 50% inhibitory concentration (IC50) in assay [3] (setting [5]) was determined as 31.8 ± 1.3 µM; in assay [4] (setting [6]) it was 9.9 ± 1.6 µM. The “SI (Selectivity Index)” value in assay [4] stood at 3.2.
In the case of `CC1=C2C3OC(=O)C(CN4CCN(c5ccccc5Cl)CC4)C3CCC2(C)C=CC1=O` (stereo not drawn) [Compound 31, 1-(2-Chlorophenyl)piperazine adduct], the IC50 in assay [3] (setting [5]) was more than 20 µM; in assay [3] (cytotoxicity, 70 h incubation, average of three independent assays) it was 21.8 ± 2.7 µM; in assay [4] (setting [7]), 7 ± 2.2 µM; in assay [4] (setting [6]), more than 5 µM. The “SI (Selectivity Index)” value in assay [4] is recorded as 3.1.
For `CC1=C2C3OC(=O)C(CNCc4ccc(Cl)cc4)C3CCC2(C)C=CC1=O` (stereo not drawn) [Compound 32, 4-Chlorobenzylamine adduct], the IC50 in assay [3] (setting [5]) came to 34.8 ± 1.2 µM; in assay [4] (setting [6]), 10.6 ± 1.5 µM. Further, the “SI (Selectivity Index)” value in assay [4] is on record as 3.4.
The corresponding values for `CC12CCC3C(CNCCc4ccc(Cl)cc4)C(=O)OC3C13C=CC(=O)C23C` (stereo not drawn) [Compound 33, 2-(4-Chlorophenyl)ethylamine adduct] are 27.6 ± 6.7 µM, 10.2 ± 3.2 µM and 2.7.
The corresponding values for `CC(=O)OC1(C)CCC2C(CNCCc3ccc(Cl)cc3)C(=O)OC2C2=C(C)C(=O)CC21` (stereo not drawn) [Compound 34, 2-(4-Chlorophenyl)ethylamine adduct] are 22.5 ± 1.6 µM, 5.4 ± 1.1 µM and 4.2.
Consider `Nc1nc(N)nc(Nc2ccc([As]3SCC(CO)S3)cc2)n1` (stereo not drawn) [Melarsoprol, reference compound], for which the IC50 in assay [3] (Rattus norvegicus, L6, 70 h) was found to be 21.7 ± 8.7 µM; in assay [4] (Trypanosoma brucei, 70 h), 0.01 ± 0.01 µM. The “SI (Selectivity Index)” value in assay [4] is 2170.
Regarding `COc1cc([C@@H]2c3cc4c(cc3[C@H](O)[C@H]3COC(=O)[C@H]23)OCO4)cc(OC)c1OC` [Podophyllotoxin, reference compound], the IC50 in assay [3] (Rattus norvegicus, L6, 70 h) amounted to 0.02 ± 0.01 µM.
